Measurements reported in US11945796B2, “Substituted pyridine derivatives as SARM1 inhibitors” (Nura Bio, Inc., priority 2020, dated 2024).
Read-outs that look alike come from different tables or passages of the source.

Biological target: T1, human SARM1(50-724) (Homo sapiens, UniProt Q6SZW1)
T1 construct: 40 nM human SARM1(50-724)
T1 sequence (Q6SZW1 50-724): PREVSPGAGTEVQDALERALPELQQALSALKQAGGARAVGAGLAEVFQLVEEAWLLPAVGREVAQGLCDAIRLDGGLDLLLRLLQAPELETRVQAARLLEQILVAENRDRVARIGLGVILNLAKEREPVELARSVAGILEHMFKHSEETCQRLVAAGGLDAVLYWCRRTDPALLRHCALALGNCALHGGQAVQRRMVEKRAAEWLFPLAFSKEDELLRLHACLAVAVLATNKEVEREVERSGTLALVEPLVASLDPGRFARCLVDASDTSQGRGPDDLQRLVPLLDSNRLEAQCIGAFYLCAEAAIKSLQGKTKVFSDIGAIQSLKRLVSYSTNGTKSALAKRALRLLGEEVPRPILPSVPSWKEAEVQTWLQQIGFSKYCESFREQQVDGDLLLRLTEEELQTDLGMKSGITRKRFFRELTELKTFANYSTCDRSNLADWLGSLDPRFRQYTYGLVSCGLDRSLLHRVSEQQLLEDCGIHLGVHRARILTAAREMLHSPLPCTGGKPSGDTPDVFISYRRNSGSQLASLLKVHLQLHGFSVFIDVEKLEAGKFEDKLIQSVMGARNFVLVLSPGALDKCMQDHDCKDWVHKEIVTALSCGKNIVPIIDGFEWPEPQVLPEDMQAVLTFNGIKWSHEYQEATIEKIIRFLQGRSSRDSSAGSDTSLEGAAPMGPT
Test: SARM1 NADase biochemical assay (HPLC peak areas of NAD and NAM)
Details: for IC50: dose-response, 1:3 serial dilution from 100 μM, 40 nM SARM1, 0.3 mM NMN, 20 μM NAD, 60 min rt
Description: The reaction was incubated at room temperature for 60 minutes and quenched with 20 μL of 0.4% formic acid. […] Total run time for each sample was 4 minutes. […] Samples were run at a flow rate of 0.8 mL/min at 55° C. Peak areas of NAD and NAM were determined using OpenLAB CDS (Chem Station edition) software. For dose-response, the compound was diluted serially 1:3 in DMSO and added to the reaction starting at a final compound concentration of 100 μM in 1% DMSO.

[1] = 50 μM compound, NAD peak area, read-out: Avg NAD % inhibition at 50 μM
[2] = 50 μM compound, NAM peak area, read-out: Avg NAM % inhibition at 50 μM
[3] = read-out: Avg NAD % inhibition at 50 μM
[4] = read-out: Avg NAM % inhibition at 50 μM

| Structure (SMILES) | IC50 [µM] | inhibition at 50 µM [1] [%] | inhibition at 50 µM [2] [%] | inhibition at 50 µM [3] [%] | inhibition at 50 µM [4] [%] |
| --- | --- | --- | --- | --- | --- |
| N#CCc1ccn(Cc2ccncc2)n1 [Example 30, 2-(1-(Pyridin-4-ylmethyl)-1H-pyrazol-3-yl)acetonitrile] | 1 to 10 | – | – | – | – |
| O=C(CCc1cccc(Cl)c1)Nc1ccn(Cc2ccncc2)n1 [Example 32, 3-(3-Chlorophenyl)-N-(1-(pyridin-4-ylmethyl)-1H-pyrazol-3-yl)propanamide] | – | 0 to 50 | 0 to 50 | – | – |
| O=C(CCc1cc(F)ccc1F)Nc1ccn(Cc2ccncc2)n1 [Example 33, 3-(2,5-Difluorophenyl)-N-(1-(pyridin-4-ylmethyl)-1H-pyrazol-3-yl)propanamide] | > 100 | 51 to 100 | 51 to 100 | – | – |
| O=C(CCc1ccccc1)Nc1ccn(Cc2ccncc2)n1 [Example 34, 3-Phenyl-N-(1-(pyridin-4-ylmethyl)-1H-pyrazol-3-yl)propanamide] | – | 0 to 50 | 0 to 50 | – | – |
| O=C(CCc1cc(Cl)cc(Cl)c1)Nc1ccn(Cc2ccncc2)n1 [Example 35, 3-(3,5-Dichlorophenyl)-N-(1-(pyridin-4-ylmethyl)-1H-pyrazol-3-yl)propanamide] | – | 0 to 50 | 0 to 50 | – | – |
| O=C(Cc1ccccc1)Nc1ccn(Cc2ccncc2)n1 [Example 36, 2-Phenyl-N-(1-(pyridin-4-ylmethyl)-1H-pyrazol-3-yl)acetamide] | – | – | – | 0 to 50 | 0 to 50 |
| COc1ccc(C(=O)Nc2ccn(Cc3ccncc3)n2)cc1OC [Example 41, 3,4-Dimethoxy-N-(1-(pyridin-4-ylmethyl)-1H-pyrazol-3-yl)benzamide] | – | – | – | 0 to 50 | 0 to 50 |
| COc1ccc(C(=O)Nc2ccn(Cc3ccncc3)n2)cc1 [Example 42, 4-Methoxy-N-(1-(pyridin-4-ylmethyl)-1H-pyrazol-3-yl)benzamide] | – | 0 to 50 | 0 to 50 | – | – |
| COc1cccc(C(=O)Nc2ccn(Cc3ccncc3)n2)c1 [Example 43, 3-Methoxy-N-(1-(pyridin-4-ylmethyl)-1H-pyrazol-3-yl)benzamide] | – | 0 to 50 | 0 to 50 | – | – |
| COc1ccccc1C(=O)Nc1ccn(Cc2ccncc2)n1 [Example 44, 2-Methoxy-N-(1-(pyridin-4-ylmethyl)-1H-pyrazol-3-yl)benzamide] | – | – | – | 0 to 50 | 0 to 50 |
| O=C(Nc1ccn(Cc2ccncc2)n1)c1ccccc1O [Example 47, 2-Hydroxy-N-(1-(pyridin-4-ylmethyl)-1H-pyrazol-3-yl)benzamide] | – | 0 to 50 | 0 to 50 | – | – |

Further lines, with some results ahead:

| IC50 [µM] | inhibition at 50 µM [1] [%] | inhibition at 50 µM [2] [%] | Structure (SMILES) | inhibition at 50 µM [3] [%] | inhibition at 50 µM [4] [%] |
| --- | --- | --- | --- | --- | --- |
| – | 0 to 50 | 0 to 50 | O=C(Nc1ccn(Cc2ccncc2)n1)c1ccc2c(c1)OCCO2 [Example 37, N-(1-(Pyridin-4-ylmethyl)-1H-pyrazol-3-yl)-2,3-dihydrobenzo[b][1,4]dioxine-6-carboxamide] | – | – |
| 1 to 10 | – | – | O=C(Nc1ccn(Cc2ccncc2)n1)c1ccc2c(c1)OCC2 [Example 38, N-(1-(Pyridin-4-ylmethyl)-1H-pyrazol-3-yl)-2,3-dihydrobenzofuran-6-carboxamide] | – | – |
| – | 0 to 50 | 0 to 50 | O=C(Nc1ccn(Cc2ccncc2)n1)c1ccc2c(c1)CCO2 [Example 39, N-(1-(Pyridin-4-ylmethyl)-1H-pyrazol-3-yl)-2,3-dihydrobenzofuran-5-carboxamide] | – | – |
| – | 0 to 50 | 0 to 50 | O=C(Nc1ccn(Cc2ccncc2)n1)c1ccc2c(c1)CCC2 [Example 40, N-(1-(Pyridin-4-ylmethyl)-1H-pyrazol-3-yl)-2,3-dihydro-1H-indene-5-carboxamide] | – | – |
| – | 0 to 50 | 0 to 50 | O=C(Nc1ccn(Cc2ccncc2)n1)c1ccc(O)cc1 [Example 45, 4-Hydroxy-N-(1-(pyridin-4-ylmethyl)-1H-pyrazol-3-yl)benzamide] | – | – |
| – | 0 to 50 | 0 to 50 | O=C(Nc1ccn(Cc2ccncc2)n1)c1cccc(O)c1 [Example 46, 3-Hydroxy-N-(1-(pyridin-4-ylmethyl)-1H-pyrazol-3-yl)benzamide] | – | – |
